Experiment: Oral bioavailability study in dogs (plasma levels of compound of formula I)
Assay type: in vivo
Settings: dog; oral administration to dogs; plasma level of compound of formula I
Description: Suitable amount of amorphous dispersion of Example I and the crystalline form of compound of formula I suspended in a vehicle were administered orally to dogs.
Blood samples were withdrawn at various time intervals and the plasma levels of compound of formula I were recorded. The Cmax, AUC0 to t and AUC0-∞, in plasma are tabulated below.

## Cc1ccc(C(=O)NNC(=O)c2c(C)cccc2Cl)cc1C#Cc1cnc2ccccc2c1 [Compound of formula I in a vehicle, 4-Methyl-3-quinolin-3-ylethynyl-benzoic acid N′-(2-chloro-6-methyl-benzoyl)hydrazide]
  AUC(0-inf): 1190 ng·h/mL
  AUC(0-t): 1070 ng·h/mL
  Cmax: 282 ng/mL
